Measurements published in patent US8895733B2 (Novartis AG, priority 2010, dated 2014).

Molecular target: T1, Nav 1.7 (Homo sapiens, UniProt Q15858)
T1 construct: expressed in transfected cells
Experiment: Whole-cell voltage clamp electrophysiology, automated patch clamp (marker c in Table of Examples)
Type: cell-based
Details: marker c = Automated patch clamp data; read-out: Nav 1.7 activity
Source text: a.IonWork Quattro data, b=Manual patch clamp data, c=Automated patch clamp data M=Method
Whole-Cell Voltage Clamp Electrophysiology Assay
Patch-clamp electrophysiology is considered the gold standard technique for investigation of ion channel function and pharmacology. Using this method, sodium channel currents can be measured in cells, which stably (or transiently) express the sodium channel subtype of interest. Application of compounds during such experiments provides a functional measure of the activity and potency of compounds affecting the ion channel of interest.
Electrophysiological studies can be performed using automated or manual patch-clamp techniques. Automated patch-clamp instruments suitable for this work include the Ion Works HT (MDS), Ion Works Quattro (MDS), PatchLiner (Nanion technologies), Port-A-Patch (Nanion technologies), QPatch (Sophion) or any other suitable platform.
For recording in automated patch-clamp instruments, cells expressing the voltage-gated sodium channel subtype of interest are dispensed in appropriate chips (plates with more than one recording chambers each containing one or more apertures to generate whole-cell patches), as provided by the manufacturer. Typically, the whole-cell perforated patch configuration is used for probing the pharmacology of compounds in automated patch-clamp electrophysiology on sodium channels. Extracellular and intracellular buffers for such experiments are composed according to the literature, or according to the instructions provided by the manufacturer of the instruments. Test solutions, which contain the compounds to be tested, are applied to the cells expressing the sodium channel of interest by a pipetting system, typically integrated into the robots.
A suitable voltage stimulus protocol is used to activate voltage-gated sodium channel proteins of interest. A typical stimulus protocol may consist of sweeps of sequential voltage pulses starting from a holding potential (i.e. −65 mV), to a more positive and depolarising test pulse potential (i.e. −10 mV) and finally to a more negative and hyperpolarising potential (i.e. −100 mV). According to the biophysics of the voltage-gated ion channel of interest and interest in channel configuration the voltages and durations of the pulses as well as the overall frequency of sweeps applied might vary. Accordingly, a stimulus protocol was designed to assess compounds due to their potential to block NaV1.7 channels primarily in inactivated state. Selectivity over other voltage-gated sodium channel members was assessed by protocols that reflect the native function of the channels (i.e. heart rate or firing of neurons).

T1 sequence (Q15858 whole entry): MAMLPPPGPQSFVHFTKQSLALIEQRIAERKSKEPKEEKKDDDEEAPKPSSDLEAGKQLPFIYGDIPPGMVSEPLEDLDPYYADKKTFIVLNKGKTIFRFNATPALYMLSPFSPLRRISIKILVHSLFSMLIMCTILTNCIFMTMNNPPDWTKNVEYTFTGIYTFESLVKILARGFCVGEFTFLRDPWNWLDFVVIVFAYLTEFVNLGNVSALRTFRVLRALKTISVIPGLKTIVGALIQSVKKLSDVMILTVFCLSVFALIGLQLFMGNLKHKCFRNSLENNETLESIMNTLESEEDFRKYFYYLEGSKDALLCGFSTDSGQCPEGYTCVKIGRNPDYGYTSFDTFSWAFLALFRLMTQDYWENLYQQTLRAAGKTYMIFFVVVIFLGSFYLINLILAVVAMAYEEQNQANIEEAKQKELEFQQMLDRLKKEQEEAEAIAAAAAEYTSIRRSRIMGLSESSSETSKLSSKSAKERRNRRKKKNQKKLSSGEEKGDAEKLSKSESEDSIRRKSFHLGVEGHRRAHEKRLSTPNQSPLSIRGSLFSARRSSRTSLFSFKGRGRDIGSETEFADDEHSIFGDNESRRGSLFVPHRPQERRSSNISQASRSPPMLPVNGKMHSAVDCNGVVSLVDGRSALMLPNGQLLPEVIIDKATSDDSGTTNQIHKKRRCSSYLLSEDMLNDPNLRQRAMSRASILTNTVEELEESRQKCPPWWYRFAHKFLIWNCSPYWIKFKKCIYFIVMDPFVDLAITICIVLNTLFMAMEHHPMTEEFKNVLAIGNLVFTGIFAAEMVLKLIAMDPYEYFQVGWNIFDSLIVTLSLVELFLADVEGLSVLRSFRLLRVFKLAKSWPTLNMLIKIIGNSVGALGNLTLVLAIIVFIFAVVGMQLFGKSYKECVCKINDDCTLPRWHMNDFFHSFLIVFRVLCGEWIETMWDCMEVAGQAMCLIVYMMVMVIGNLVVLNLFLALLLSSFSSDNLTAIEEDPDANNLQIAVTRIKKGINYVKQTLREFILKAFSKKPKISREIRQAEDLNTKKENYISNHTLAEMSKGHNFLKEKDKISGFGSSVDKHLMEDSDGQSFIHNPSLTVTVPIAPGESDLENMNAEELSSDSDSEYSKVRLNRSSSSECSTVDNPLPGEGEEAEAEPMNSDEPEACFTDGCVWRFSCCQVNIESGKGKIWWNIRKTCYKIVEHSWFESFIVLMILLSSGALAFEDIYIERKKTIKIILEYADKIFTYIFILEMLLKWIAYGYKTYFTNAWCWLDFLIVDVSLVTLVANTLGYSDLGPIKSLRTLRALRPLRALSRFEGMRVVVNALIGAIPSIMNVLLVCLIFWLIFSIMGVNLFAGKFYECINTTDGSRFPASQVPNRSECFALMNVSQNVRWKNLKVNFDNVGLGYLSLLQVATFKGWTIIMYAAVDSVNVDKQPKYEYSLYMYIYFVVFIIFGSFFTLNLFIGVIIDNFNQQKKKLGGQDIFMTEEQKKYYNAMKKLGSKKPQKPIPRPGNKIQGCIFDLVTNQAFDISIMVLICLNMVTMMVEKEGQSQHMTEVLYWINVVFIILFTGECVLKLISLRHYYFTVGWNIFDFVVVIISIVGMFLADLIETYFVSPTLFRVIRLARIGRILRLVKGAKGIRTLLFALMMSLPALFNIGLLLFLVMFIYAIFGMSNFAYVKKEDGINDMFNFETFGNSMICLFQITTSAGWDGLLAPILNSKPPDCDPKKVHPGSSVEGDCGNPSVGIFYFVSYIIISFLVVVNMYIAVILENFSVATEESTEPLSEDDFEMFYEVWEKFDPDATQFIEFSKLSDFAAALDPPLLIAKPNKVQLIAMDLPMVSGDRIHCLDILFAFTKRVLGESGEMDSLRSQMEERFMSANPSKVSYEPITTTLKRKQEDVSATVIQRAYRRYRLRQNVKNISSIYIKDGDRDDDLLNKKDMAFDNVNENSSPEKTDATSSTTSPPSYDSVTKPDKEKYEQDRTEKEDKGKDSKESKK

IC50 [nM]	SMILES
1690	Nc1nc(Nc2cccc(F)c2)nc(-c2noc(NC3CCCC3)n2)n1 [Example 235, 6-[5-(cyclopentylamino)-1,2,4-oxadiazol-3-yl]-2-N-(3-fluorophenyl)-1,3,5-triazine-2,4-diamine]
451	COCCN(c1ccccc1)c1nc(N)nc(-c2noc(-c3ccc(C(=O)OC)nc3)n2)n1 [Example 311, methyl 5-(3-{4-amino-6-[(2-methoxyethyl)(phenyl)amino]-1,3,5-triazin-2-yl}-1,2,4-oxadiazol-5-yl)pyridine-2-carboxylate]
211	CC(OCC(F)(F)F)c1ccc(-c2nc(-c3nc(N)nc(Nc4ccccc4)n3)no2)cn1 (stereo not drawn) [Example 212, 2-N-phenyl-6-(5-{6-[1-(2,2,2-trifluoroethoxy)ethyl]pyridin-3-yl}-1,2,4-oxadiazol-3-yl)-1,3,5-triazine-2,4-diamine]
2360	CN(c1ccccc1)c1nc(N)nc(-c2noc(N3CCC(=CCC(F)(F)F)CC3)n2)n1 [Example 324, 2-N-Methyl-2-N-phenyl-6-{5-[4-(3,3,3-trifluoropropylidene)piperidin-1-yl]-1,2,4-oxadiazol-3-yl}-1,3,5-triazine-2,4-diamine]
406	Nc1nc(Nc2cccc(F)c2)nc(-c2noc(N3CCCCC3)n2)n1 [Example 236, 2-N-(3-fluorophenyl)-6-[5-(piperidin-1-yl)-1,2,4-oxadiazol-3-yl]-1,3,5-triazine-2,4-diamine]
> 8950	Nc1nc(Nc2ccccc2)nc(-c2noc(-c3cccnc3OCC(F)(F)F)n2)n1 [Example 502, 2-N-phenyl-6-{5-[2-(2,2,2-trifluoroethoxy)pyridin-3-yl]-1,2,4-oxadiazol-3-yl}-1,3,5-triazine-2,4-diamine]
4810	CN(c1ccccc1)c1nc(N)nc(-c2noc(C3CN(C(=O)OC(C)(C)C)C3)n2)n1 [Example 382, tert-butyl 3-(3-{4-amino-6-[methyl(phenyl]amino]-1,3,5-triazin-2-yl}-1,2,4-oxadiazol-5-yl)azetidine-1-carboxylate]
3070	CN(c1ccccc1)c1nc(N)nc(-c2noc(C3CN(CC(F)(F)F)C3)n2)n1 [Example 314, 2-N-Methyl-2-N-phenyl-6-{5-[1-(2,2,2-trifluoroethyl)azetidin-3-yl]-1,2,4-oxadiazol-3-yl}-1,3,5-triazine-2,4-diamine]
> 8460	CN(c1ccccc1)c1nc(N)nc(-c2noc(N3CCC(S(=O)(=O)CC(F)(F)F)CC3)n2)n1 [Example 365, 2-N-methyl-2-N-phenyl-6-(5-{4-[(2,2,2-trifluoroethane)sulfonyl]piperidin-1-yl}-1,2,4-oxadiazol-3-yl)-1,3,5-triazine-2,4-diamine]
376	COc1ccccc1-c1nc(-c2nc(N)nc(Nc3cccc(F)c3)n2)no1 [Example 248, 2-N-(3-fluorophenyl)-6-[5-(2-methoxyphenyl)-1,2,4-oxadiazol-3-yl]-1,3,5-triazine-2,4-diamine]
7960	CN(c1ccccc1)c1nc(N)nc(-c2noc(-c3ccc(NC4CCOC4)nc3)n2)n1 (stereo not drawn) [Example 328, 2-N-methyl-6-(5-{6-[(oxolan-3-yl)amino]pyridin-3-yl}-1,2,4-oxadiazol-3-yl)-2-N-phenyl-1,3,5-triazine-2,4-diamine]
833	Nc1nc(Nc2ccccc2)nc(-c2noc(C(=O)N3CCCC3)n2)n1 [Example 220, 2-N-phenyl-6-{5-[(pyrrolidin-1 - yl)carbonyl]-1,2,4-oxadiazol-3-yl}-1,3,5-triazine-2,4-diamine]
1090	CC(C)CS(=O)(=O)N1CCC[C@@H]1c1nc(-c2nc(N)nc(N(C)c3ccccc3)n2)no1 [Example 447, 2-N-methyl-6-{5-[(2R)-1-[(2-methylpropane)sulfonyl]pyrrolidin-2-yl]-1,2,4-oxadiazol-3-yl}-2-N-phenyl-1,3,5-triazine-2,4-diamine]
684	CN(c1ccccc1)c1nc(N)nc(-c2noc(C3CCC(NC(=O)OC(C)(C)C)CC3)n2)n1 (stereo not drawn) [Example 423, tert-butyl N-[4-(3-{4-amino-6-[methyl(phenyl)amino]-1,3,5-triazin-2-yl}-1,2,4-oxadiazol-5-yl)cyclohexyl]carbamate]
210	COC(=O)c1ccc(-c2nc(-c3nc(N)nc(Nc4ccccc4)n3)no2)cn1 [Example 297]
893	CN(c1ccccc1)c1nc(N)nc(-c2noc([C@H]3CCCN3C(=O)OC(C)(C)C)n2)n1 [Example 353, tert-butyl (2R)-2-(3-{4-amino-6-[methyl(phenyl)amino]-1,3,5-triazin-2-yl}-1,2,4-oxadiazol-5-yl)pyrrolidine-1-carboxylate]
2570	CN(c1ccccc1)c1nc(N)nc(-c2noc([C@H]3CCCN3C(=O)CC3CC3)n2)n1 [Example 449, 1-[(2R)-2-(3-{4-amino-6-[methyl(phenyl)amino]-1,3,5-triazin-2-yl}-1,2,4-oxadiazol-5-yl)pyrrolidin-1-yl]-2-cyclopropylethan-1-one]
11	CN(c1ccccc1)c1nc(N)nc(-c2noc(-c3ccc(COCC(F)(F)F)cc3)n2)n1 [Example 351, 2-N-methyl-2-N-phenyl-6-(5-{4-[(2,2,2-trifluoroethoxy)methyl]phenyl}-1,2,4-oxadiazol-3-yl)-1,3,5-triazine-2,4-diamine]
308	COC(=O)c1ccc(-c2nc(-c3nc(N)nc(N(C)c4ccccc4)n3)no2)nc1 [Example 285, methyl 6-(3-{4-amino-6-[methyl(phenyl)amino]-1,3,5-triazin-2-yl}-1,2,4-oxadiazol-5-yl)pyridine-3-carboxylate]
1200	CN(c1ccccc1)c1nc(N)nc(-c2noc(N3CCC(Oc4ccccn4)CC3)n2)n1 [Example 354, 2-N-methyl-2-N-phenyl-6-{5-[4-(pyridin-2-yloxy)piperidin-1-yl]-1,2,4-oxadiazol-3-yl}-1,3,5-triazine-2,4-diamine]
113	CN(c1ccccc1)c1nc(N)nc(-c2noc(-c3ccc(COCC4CC4)nc3)n2)n1 [Example 208, 6-(5-{6-[(cyclopropylmethoxy)methyl]pyridin-3-yl}-1,2,4-oxadiazol-3-yl)-2-N-methyl-2-N-phenyl-1,3,5-triazine-2,4-diamine]

SMILES	IC50 [nM]
CN(c1ccccc1)c1nc(N)nc(-c2noc(-c3ccc(OC4CCC4)nc3)n2)n1 [Example 331, 6-[5-(6-cyclobutoxypyridin-3-yl)-1,2,4-oxadiazol-3-yl]-2-N-methyl-2-N-phenyl-1,3,5-triazine-2,4-diamine]	140

Same assay, conditions: marker c: Automated patch clamp data; read-out: Nav 1.7 activity

IC50 [nM]	SMILES
254	CC(C)S(=O)(=O)N1CCC(c2nc(-c3nc(N)nc(N(C)c4ccccc4)n3)no2)CC1 [Example 171, 2-N-methyl-2-N-phenyl-6-{5-[1-(propane-2-sulfonyl)piperidin-4-yl]-1,2,4-oxadiazol-3-yl}-1,3,5-triazine-2,4-diamine]
1880	CCS(=O)(=O)N1CCC(c2nc(-c3nc(N)nc(N(C)c4ccccc4)n3)no2)CC1 [Example 170, 6-{5-[1-(ethanesulfonyl)piperidin-4-yl]-1,2,4-oxadiazol-3-yl}-2-N-methyl-2-N-phenyl-1,3,5-triazine-2,4-diamine]
1490	CCOC(=O)c1nc(-c2nc(N)nc(N(C)c3ccccc3)n2)no1 [Example 73, 3-[4-Amino-6-(methyl-phenyl-amino)-[1,3,5]triazin-2-yl]-[1,2,4]oxadiazole-5-carboxylic acid ethyl ester]
1510	CN(c1ccccc1)c1nc(N)nc(-c2noc(-c3ncco3)n2)n1 [Example 128, N-Methyl-6-(5-oxazol-2-yl-[1,2,4]oxadiazol-3-yl)-N-phenyl-[1,3,5]triazine-2,4-diamine]
361	COc1cccc(-c2nc(-c3nc(N)nc(N(C)c4ccccc4F)n3)no2)c1 [Example 88, N-(2-Fluoro-phenyl)-6-[5-(3-methoxy-phenyl)-[1,2,4]oxadiazol-3-yl]-N-methyl-[1,3,5]triazine-2,4-diamine]
1100	Cc1ccc(-c2nc(-c3nc(N)nc(N(C)c4ccccc4)n3)no2)s1 [Example 62, N-Methyl-6-[5-(5-methyl-thiophen-2-yl)-[1,2,4]oxadiazol-3-yl]-N-phenyl-[1,3,5]triazine-2,4-diamine]
2720	Cc1cc(-c2nc(-c3nc(N)nc(N(C)c4ccccc4)n3)no2)no1 [Example 44, N-Methyl-6-[5-(5-methyl-isoxazol-3-yl)-[1,2,4]oxadiazol-3-yl]-N-phenyl-[1,3,5]triazine-2,4-diamine]
4580	CN(c1ccccc1)c1nc(N)nc(-c2noc(C3CCCCO3)n2)n1 (stereo not drawn) [Example 56, N-Methyl-N-phenyl-6-[5-(tetrahydro-pyran-2-yl)-[1,2,4]oxadiazol-3-yl]-[1,3,5]triazine-2,4-diamine]
